The results in this text go back to ChEMBL document CHEMBL5537193, “Multitargeting HDAC Inhibitors Containing a RAS/RAF Protein Interfering Unit” (J Med Chem, 2024).

Assay [1] deals with NCI-H1975. The experiment in a line: cells. The conditions noted are these: Homo sapiens, NCI-H1975, 72 h.
Description: Cytotoxicity against human NCI-H1975 cells assessed as inhibition of cell growth incubated for 72 hrs by MTT assay
The test system of assay [2] is Mus musculus. The experiment in a line: In vivo inhibition of MAPK signaling pathway in BALB/c mouse xenografted with human HT-29 cells assessed as inhibition of MEK phosphorylation administered intraperitoneally once every 2 days for 12 times and measured after 24 days by Western blot analysis. It counts as functional. The note with it: dose 7.5-15 mg/kg, route ip, time 24.0 day. Background: Xenograft models place foreign cells or tissue in a host animal.

Molecules are shown by their SMILES.

`COc1cc(OC)c(/C=C/S(=O)(=O)Cc2ccc(OC)c(NCC(=O)NO)c2)c(OC)c1` displayed an IC50 in assay [1] of 50 nM. Moreover, in assay [2], the inhibition entry is “Dose-Dependent Effect”.

The term IC50 denotes the concentration that inhibits the measured activity by half. Read a low IC50 as inhibition by little substance.
